Results published in PubChem BioAssay AID1845219 (Molecular Pharmacology Branch, DTP, NCI, 2023).
Where “and” joins values, the source holds several entries; their conditions need not be identical. Identical values can stand only once. Calls of active or inactive are those of the source. The calls were made as follows: active = viability on the fitted dose curve at most 10% of control; inactive = the rest.

Test system: SYO-1 tumor spheroids, viability % test/control
Test: Anticancer human tumor SYO-1 cell line growth inhibition;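 also: spheroids exposed to agents for 7 days before viability read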;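 as to viability, T/C: 100% = DMSO vehicle control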
Settings: spheroids with HUVEC and MSC; for viability, T/C: stronger effect = lower value
Procedure, shortened: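 Complex tumor spheroids combined malignant cells with endothelial cells and mesenchymal stem cells. DNA-damaging drugs and DNA repair inhibitors were tested alone and in combination, at half-log dilutions down from clinical Cmax (top 10 microM if Cmax unknown), 0.25% DMSO final.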

[1] = curve of first compound, second compound 30 pM
[2] = curve of first compound, second compound 94.9 pM
[3] = curve of first compound, second compound 0.0003 µM
[4] = curve of first compound, second compound 0.000949 µM
[5] = curve of first compound, second compound 0.003 µM

COc1ccc([C@@H](O)c2cc(-c3ncnc4cc(N5CCOCC5)ccc34)c(F)cc2Cl)nn1 + COc1cc2c(cc1O)CCNC21CSC2c3c(OC(C)=O)c(C)c4c(c3C(COC1=O)N1C(O)C3Cc5cc(C)c(OC)c(O)c5C(C21)N3C)OCO4
IC50 [1]: 3.17 µM | IC50 [2]: 0.772 µM | IC50 [3]: < 0.0316 µM | IC50 [4]: < 0.0316 µM | IC50 [5]: < 0.0316 µM | viability, T/C (second compound 30 pM, first compound 0.0316 µM): 104% | viability, T/C (second compound 30 pM, first compound 0.1 µM): 103% | viability, T/C (second compound 30 pM, first compound 0.316 µM): 105% | viability, T/C (second compound 30 pM, first compound 1 µM): 102% | viability, T/C (second compound 30 pM, first compound 3.16 µM): 50.1% | viability, T/C (second compound 30 pM, first compound 10 µM): 2.83% | viability, T/C (second compound 94.9 pM, first compound 0.0316 µM): 97.7% | viability, T/C (second compound 94.9 pM, first compound 0.1 µM): 103% | viability, T/C (second compound 94.9 pM, first compound 0.316 µM): 94.9% | viability, T/C (second compound 94.9 pM, first compound 1 µM): 37% | viability, T/C (second compound 94.9 pM, first compound 3.16 µM): 5.43% | viability, T/C (second compound 94.9 pM, first compound 10 µM): 7.51% | viability, T/C (second compound 0.0003 µM, first compound 0.0316 µM): 12.2% | viability, T/C (second compound 0.0003 µM, first compound 0.1 µM): 9.57% | viability, T/C (second compound 0.0003 µM, first compound 0.316 µM): 3.06% | viability, T/C (second compound 0.0003 µM, first compound 1 µM): 1.34% | viability, T/C (second compound 0.0003 µM, first compound 3.16 µM): 0.26% | viability, T/C (second compound 0.0003 µM, first compound 10 µM): 0.17% | viability, T/C (second compound 0.000949 µM, first compound 0.0316 µM): 0.88% | viability, T/C (second compound 0.000949 µM, first compound 0.1 µM): 0.86% | viability, T/C (second compound 0.000949 µM, first compound 0.316 µM): 0.54% | viability, T/C (second compound 0.000949 µM, first compound 1 µM): 0.23% | viability, T/C (second compound 0.000949 µM, first compound 3.16 µM): 0.03% | viability, T/C (second compound 0.000949 µM, first compound 10 µM): 0.15% | viability, T/C (second compound 0.003 µM, first compound 0.0316 µM): 0.12% | viability, T/C (second compound 0.003 µM, first compound 0.1 µM): 0.12% | viability, T/C (second compound 0.003 µM, first compound 0.316 µM): 0.1% | viability, T/C (second compound 0.003 µM, first compound 1 µM): 0.24% | viability, T/C (second compound 0.003 µM, first compound 3.16 µM): 0.38% | viability, T/C (second compound 0.003 µM, first compound 10 µM): 1.5%

O=C(c1cc(Cc2n[nH]c(=O)c3ccccc23)ccc1F)N1CCN(C(=O)C2CC2)CC1
viability, T/C (compound 0.0949 µM): 102% (2×) and 103% | viability, T/C (compound 0.3 µM): 100% and 103% and 99.2% | viability, T/C (compound 0.949 µM): 90.7% and 93.7% and 94.1% | viability, T/C (compound 3 µM): 14.7% and 32.7% and 11% | viability, T/C (compound 9.49 µM): 3.59% and 3.04% and 2.51% | viability, T/C (compound 30 µM): 2.83% and 2.91% and 2.43% | IC50 (curve of compound): 1.76 µM and 2.16 µM and 1.75 µM

Cc1sc2c(c1C)C(c1ccc(Cl)cc1)=NC(CC(=O)Nc1ccc(O)cc1)c1nnc(C)n1-2 (configuration not stated) + COc1cc2c(cc1O)CCNC21CSC2c3c(OC(C)=O)c(C)c4c(c3C(COC1=O)N1C(O)C3Cc5cc(C)c(OC)c(O)c5C(C21)N3C)OCO4
IC50 [1]: 0.0529 µM | IC50 [2]: 0.0432 µM | IC50 [3]: < 0.00949 µM | IC50 [4]: < 0.00949 µM | IC50 [5]: < 0.00949 µM | viability, T/C (second compound 30 pM, first compound 0.00949 µM): 89% | viability, T/C (second compound 30 pM, first compound 0.03 µM): 86.8% | viability, T/C (second compound 30 pM, first compound 0.0949 µM): 12.1% | viability, T/C (second compound 30 pM, first compound 0.3 µM): 0.72% | viability, T/C (second compound 30 pM, first compound 0.949 µM): 0.4% | viability, T/C (second compound 30 pM, first compound 3 µM): 0.28% | viability, T/C (second compound 94.9 pM, first compound 0.00949 µM): 86.1% | viability, T/C (second compound 94.9 pM, first compound 0.03 µM): 69% | viability, T/C (second compound 94.9 pM, first compound 0.0949 µM): 8.96% | viability, T/C (second compound 94.9 pM, first compound 0.3 µM): 0.68% | viability, T/C (second compound 94.9 pM, first compound 0.949 µM): 0.34% | viability, T/C (second compound 94.9 pM, first compound 3 µM): 0.28% | viability, T/C (second compound 0.0003 µM, first compound 0.00949 µM): 6.25% | viability, T/C (second compound 0.0003 µM, first compound 0.03 µM): 2.72% | viability, T/C (second compound 0.0003 µM, first compound 0.0949 µM): 0.68% | viability, T/C (second compound 0.0003 µM, first compound 0.3 µM): 0.58% | viability, T/C (second compound 0.0003 µM, first compound 0.949 µM): 0.32% | viability, T/C (second compound 0.0003 µM, first compound 3 µM): 6.38% | outcome (second compound 0.000949 µM, first compound 0.00949 µM): active | viability, T/C (second compound 0.000949 µM, first compound 0.03 µM): 0.65% | viability, T/C (second compound 0.000949 µM, first compound 0.0949 µM): 0.51% | viability, T/C (second compound 0.000949 µM, first compound 0.3 µM): 0.24% | viability, T/C (second compound 0.000949 µM, first compound 0.949 µM): 0.06% | viability, T/C (second compound 0.000949 µM, first compound 3 µM): 0.12% | viability, T/C (second compound 0.003 µM, first compound 0.00949 µM): 0.08% | viability, T/C (second compound 0.003 µM, first compound 0.03 µM): 0.1% | viability, T/C (second compound 0.003 µM, first compound 0.0949 µM): 0.09% | viability, T/C (second compound 0.003 µM, first compound 0.3 µM): 0.1% | viability, T/C (second compound 0.003 µM, first compound 0.949 µM): 0.09% | viability, T/C (second compound 0.003 µM, first compound 3 µM): 0.21%
